Source: patent publication US7704533B2, “Compositions and methods of inducing hair growth utilizing Continus coggygria” (J&J Consumer Companies, Inc., priority 2006, dated 2010)

Experiments:
C3H mice = assay: Hair growth induction in C3H mice (mice entering anagen); assay type: in vivo
Excerpt: C3H female mice age 6-7 weeks of age were purchased from Taconic Farms (Germantown, N.Y.). Mice were housed in appropriately sized cages in an environmentally controlled room with a 12-hour light-12-hour dark photoperiod and supplied with food and water ad libitum. Animal care was based on the “Guide for the Care and Use of Laboratory Animals”, NIH Publication No. 85-23. Animals were acclimated for a week before study starts. Once all mice entered their prolonged telogen/resting phase (about 50-60 days long) of the hair cycle, they were clipped over the dorsal area about 1.5×5 cm (Wahl Clippers 8900 Series, Blade # 1086). Seven female mice per group were clipped while sedated with 2% induction and maintenance isoflurane and 0.5 L Oxygen. In addition to the 150 mg/ml Cotinus coggygria formulation, the treatment groups included a placebo, 5% Minoxidil as positive control and an untreated group to serve as control for natural hair growth initiation and to observe placebo effects. 200 μl of test materials were applied topically to the area daily, 5 days a week. Images were taken at the first signs of anagen/active growth phase and when needed based on visual observation. Skin samples were obtained for histological analysis at week 3 and a study log documenting day-to-day observations of mice entering anagen (grey skin, the first visual clue to a new hair growth) were recorded. Treatments continued for up to 6 weeks. […] C3H mice were treated as described in Example 3. In addition to the 150 mg/ml Cotinus coggygria formulation prepared as a concentrate via heat processing, a lyophilized Cotinus extract powder was prepared as described above, as well as lower (60 mg/ml, 90 mg/ml, 120 mg/ml) and higher concentrations (up to 210 mg/ml) of Cotinus coggygria extracts (Table III). The treatment groups included a placebo, 5% minoxidil as positive control and an untreated group to serve as control for natural hair growth initiation and to observe placebo effects. 200 ul of test materials were applied topically to the area daily, 5 days a week. Images were taken at the first signs of anagen/active growth phase and when needed based on visual observation. Skin samples were obtained for histological analysis and a study log documenting day-to-day observations of mice entering anagen (grey skin) were recorded. Treatments continued for up to 6 weeks. […] Moreover, a dose-dependent increase in dorsal hair coverage was observed visually and documented by images, and also confirmed by histological analysis. […] C3H female mice clipped over the dorsal area once they have entered their prolonged telogen phase (about 8 weeks long) were topically treated once daily for 6 weeks with 200 μl 150 mg/ml of Cotinus coggygria extract or with 5% Minoxidil or with the combination of both agents. […] C3H hair growth studies were performed as described in earlier examples, with the addition of formulation agents to the cotinus extract preparation.

[1] = test system: postmenopausal women with androgenetic alopecia; conditions: one-year trial; cited from earlier work

## Nc1cc(N2CCCCC2)nc(N)[n+]1[O-] [5% Minoxidil, Minoxidil]
C3H mice; Table II, day 9 of study, listed as Ave 5% Minoxidil
  % of mice entering anagen: 7%
C3H mice; Table II, day 9 of study, listed as Best 5% Minoxidil
  % of mice entering anagen: 20%
C3H mice; Table II, day 10 of study, listed as Ave 5% Minoxidil
  % of mice entering anagen: 18%
C3H mice; Table II, day 10 of study, listed as Best 5% Minoxidil
  % of mice entering anagen: 40%
C3H mice; Table II, day 13 of study, listed as Ave 5% Minoxidil
  % of mice entering anagen: 18%
C3H mice; Table II, day 13 of study, listed as Best 5% Minoxidil
  % of mice entering anagen: 40%
C3H mice; Table II, day 14 of study, listed as Ave 5% Minoxidil
  % of mice entering anagen: 31%
C3H mice; Table II, day 14 of study, listed as Best 5% Minoxidil
  % of mice entering anagen: 80%
C3H mice; Table II, day 16 of study, listed as Ave 5% Minoxidil
  % of mice entering anagen: 31%
C3H mice; Table II, day 16 of study, listed as Best 5% Minoxidil
  % of mice entering anagen: 80%
C3H mice; Table II, day 20 of study, listed as Ave 5% Minoxidil
  % of mice entering anagen: 32%
C3H mice; Table II, day 20 of study, listed as Best 5% Minoxidil
  % of mice entering anagen: 80%
C3H mice; Table II, day 22 of study, listed as Ave 5% Minoxidil
  % of mice entering anagen: 41%
C3H mice; Table II, day 22 of study, listed as Best 5% Minoxidil
  % of mice entering anagen: 80%
C3H mice; Table II, day 23 of study, listed as Ave 5% Minoxidil
  % of mice entering anagen: 38%
C3H mice; Table II, day 23 of study, listed as Best 5% Minoxidil
  % of mice entering anagen: 80%
C3H mice; Table II, day 24 of study, listed as Ave 5% Minoxidil
  % of mice entering anagen: 36%
C3H mice; Table II, day 24 of study, listed as Best 5% Minoxidil
  % of mice entering anagen: 75%
C3H mice; Table II, day 27 of study, listed as Ave 5% Minoxidil
  % of mice entering anagen: 36%
C3H mice; Table II, day 27 of study, listed as Best 5% Minoxidil
  % of mice entering anagen: 75%
C3H mice; Table II, day 29 of study, listed as Ave 5% Minoxidil
  % of mice entering anagen: 36%
C3H mice; Table II, day 29 of study, listed as Best 5% Minoxidil
  % of mice entering anagen: 100%
C3H mice; Table II, day 31 of study, listed as Ave 5% Minoxidil
  % of mice entering anagen: 45%
C3H mice; Table II, day 31 of study, listed as Best 5% Minoxidil
  % of mice entering anagen: 100%
C3H mice; Table II, day 35 of study, listed as Ave 5% Minoxidil
  % of mice entering anagen: 48%
C3H mice; Table II, day 35 of study, listed as Best 5% Minoxidil
  % of mice entering anagen: 100%
C3H mice; Table II, day 42 of study, listed as Ave 5% Minoxidil
  % of mice entering anagen: 63%
C3H mice; Table II, day 42 of study, listed as Best 5% Minoxidil
  % of mice entering anagen: 100%
C3H mice; Table II, day 43 of study, listed as Ave 5% Minoxidil
  % of mice entering anagen: 87%
C3H mice; Table II, day 43 of study, listed as Best 5% Minoxidil
  % of mice entering anagen: 100%
C3H mice; Table II, day 44 of study, listed as Ave 5% Minoxidil
  % of mice entering anagen: 93%
C3H mice; Table II, day 44 of study, listed as Best 5% Minoxidil
  % of mice entering anagen: 100%
C3H mice; Table III, day 8 of study
  % of mice entering anagen: 0%
C3H mice; Table III, day 9 of study
  % of mice entering anagen: 0%
C3H mice; Table III, day 10 of study
  % of mice entering anagen: 14%
C3H mice; Table III, day 11 of study
  % of mice entering anagen: 43%
C3H mice; Table III, day 14 of study
  % of mice entering anagen: 33%
C3H mice; Table III, day 15 of study
  % of mice entering anagen: 33%
C3H mice; Table III, day 16 of study
  % of mice entering anagen: 33%
C3H mice; Table III, day 17 of study
  % of mice entering anagen: 20%
C3H mice; Table III, day 18 of study
  % of mice entering anagen: 40%
C3H mice; Table III, day 21 of study
  % of mice entering anagen: 80%
C3H mice; Table III, day 22 of study
  % of mice entering anagen: 80%
C3H mice; Table III, day 23 of study
  % of mice entering anagen: 80%
C3H mice; Table III, day 24 of study
  % of mice entering anagen: 80%
C3H mice; Table III, day 25 of study
  % of mice entering anagen: 80%
C3H mice; Table III, day 28 of study
  % of mice entering anagen: 80%
C3H mice; Table III, day 29 of study
  % of mice entering anagen: 80%

## CC(C)(C)NC(=O)[C@H]1CC[C@H]2[C@@H]3CC[C@H]4NC(=O)C=C[C@]4(C)[C@H]3CC[C@]12C [Finasteride]
[1]
  scalp hair growth: did not improve scalp hair growth
